Experimental findings from patent US20150218523A1, “MANUFACTURE OF VASCULAR SMOOTH MUSCLE CELLS AND THE USE” (Agency for Science, Technology and Research, priority 2014, published 2015) are described below.

Test [1] has as its system NCSMCs derived from hESC (H9). Particulars: NCSMCs at 1% oxygen, drug 48 hr (minocycline 5 μM, losartan 5 μM), then labeled Aβ for 1 hr.
Procedure: NCSMCs and BVSMCs were routinely cultured at 21% oxygen and 1% oxygen to simulate normoxic and chronic hypoxic conditions, respectively. Twenty one percent O2 SMCs were seeded at 30,000 cells/well onto 96-well plate as positive controls. One percent O2 SMCs were seeded at the same density as negative controls and experimental samples for drug treatment on the same plate. The 96-well plate was incubated at 37° C. overnight at 21% O2. After cell attachment, 2 mg/ml of fluorescently labeled amyloid peptide (Aβ42-Hilyte Fluor 555 or Aβ40-Hilyte Fluor 488, Anaspec) was added to SMCs for a 1 hr uptake at 37° C. After Aβ uptake, cells were dissociated into single-cell suspension for high-throughput flow cytometry by LSRFortessa plate analyzer. Respective Z factors for NCSMC and BVSMC Aβ uptake assays were calculated based on their mean fluorescence brightness (normalized to no-uptake controls) and SDs of positive (21% O2) and negative (1% O2) controls. […] Mean fluorescence brightness signals (normalized to no-uptake control) indicated the degree of amyloid uptake.
NCSMC were treated with the following reference compounds for 48 hours at 37° C. prior to Aβ uptake. […]
The NCSMC and BVSMC cultures were scaled down to 96-well format. […] Cells were incubated with labeled Aβ40 and Aβ42 (2 mg/ml) for an hour and subsequently evaluated by high-throughput flow cytometry.
Another test has as its system SMC subtypes. Description: SMC contraction study. The test is classed as cell-based, human. Particulars: angiotensin II 0.5 μM, 10 min, all SMC subtypes, n=30. The procedure: SMCs were preloaded with the calcium-sensitive fluorophore, Fluo-4 AM (2.5 μM; Molecular Probes) at 37° C. for an hour. Contraction was induced by treating the cells with angiotensin II (0.5 μM, Sigma). Contraction pictures and intracellular calcium flux videos of SMCs were acquired by a time-lapse microscope live cell imaging microscope (Zeiss Axiovert 200M) during 10 minutes of angiotensin II treatment. Change of cell surface area was assessed by ImageJ software.

For the molecule `CCCCc1nc(Cl)c(CO)n1Cc1ccc(-c2ccccc2-c2nn[nH]n2)cc1` [losartan], the “Effect on Aβ uptake (Aβ40 and Aβ42) over the vehicle control” value in test [1] is listed as “may not have any apparent effect”. For “angiotensin II (DRVYIHPF; Angiotensin-2; UniProt P01019 25-32, looked up) [vasoconstrictor, an inducer of contraction (0.5 μM, Sigma)]”, the “Reduction of cell surface area in contracting SMCs” value in the test with SMC subtypes is recorded as 18%-21%.
